Laboratory results: patent publication US6559151B2, “6-(2-trifluoromethyl-phenyl)-triazolopyrimidines” (BASF Aktiengesellschaft, priority 2000, dated 2003)
Converted amounts (≈) assume the structure as drawn.

Experiments:
Type in all cases: cell-based
Cochliobulus sativus = test: MIC serial dilution test, Cochliobulus sativus; details: V8 juice medium, 6-12 days at 18-25° C., visual
Rhizoctonia solani = test: In vitro fungicidal activity against Rhizoctonia solani (mycelial growth inhibition rating); parameters: key: 0: None; 3: slight; 5: moderate; 7: severe; 9: complete; details: 25 ppm; 24-cell-well plates; 3-7 days of incubation
Experimental: C Evaluation of In vitro Fungicidal Activity against Rhizoctonia solani Test compounds are dissolved in acetone to give a concentration of 25 ppm and added to individual cell walls (24-cell-well-plates, Corning), which were previously filled with a suspension of ground fungal mycelium in a chemically defined growth medium. After 3-7 days of incubation, inhibition of mycelial growth is recorded using the following scale: The data obtained are shown in Table IV. Rating scale [table]

[1] = tested on: Magnaporthe grisea f. sp. Oryzae; details: total inhibition of mycelial growth; V8 juice medium; 6-12 days at 18-25° C.; visual
Alternaria solani = test: MIC serial dilution test, Alternaria solani; details: V8 juice medium, 6-12 days at 18-25° C., visual
Botrytis cinerea = test: MIC serial dilution test, Botrytis cinerea; details: V8 juice medium, 6-12 days at 18-25° C., visual

| SMILES | MIC (Minimum Inhibitory Concentration) COCHSA (Cochliobulus sativus) [µg/mL] | Rating (inhibition of mycelial growth) (Rhizoctonia solani) | MIC (Minimum Inhibitory Concentration) PYRIOR [1] [µg/mL] | MIC (Minimum Inhibitory Concentration) ALTEBO (Alternaria solani) [µg/mL] | MIC (Minimum Inhibitory Concentration) BOTRCI (Botrytis cinerea) |
| --- | --- | --- | --- | --- | --- |
| CC(C)Nc1c(-c2cc(F)ccc2C(F)(F)F)c(Cl)nc2ncnn12 [Compound I-1, [5-chloro-6-(5-fluoro-2-trifluoromethyl-phenyl)-[1,2,4]triazolo[1,5-α]pyrimidin-7-yl]-isopropyl-amine] | 25 (≈ 66.9 µM) | 7 | 1.56 (≈ 4.17 µM) | 100 (≈ 268 µM) | 50 µg/mL (≈ 134 µM) |
| Fc1ccc(C(F)(F)F)c(-c2c(Cl)nc3ncnn3c2NC2CCCC2)c1 [Compound I-2, [5-chloro-6-(5-fluoro-2-trifluoromethyl-phenyl)-[1,2,4]triazolo[1,5-α]pyrimidin-7-yl]-cyclopentyl-amine] | 3.13 (≈ 7.83 µM) | 7 | 0.78 (≈ 1.95 µM) | 3.13 (≈ 7.83 µM) | 25 µg/mL (≈ 62.5 µM) |
| Fc1ccc(C(F)(F)F)c(-c2c(Cl)nc3ncnn3c2NC2CC3CCC2C3)c1 (centres unmarked) [Compound I-3] | 6.25 (≈ 14.7 µM) | 5 | 12.5 (≈ 29.4 µM) | 0.78 (≈ 1.83 µM) | 25 µg/mL (≈ 58.7 µM) |
| CCN(CC)c1c(-c2cc(F)ccc2C(F)(F)F)c(Cl)nc2ncnn12 [Compound I-4, N-[5-chloro-6-(5-fluoro-2-trifluoromethyl-phenyl)-[1,2,4]triazolo[1,5-α]pyrimidin-7-yl]-N,N-diethyl-amine] | 12.5 (≈ 32.2 µM) | 7 | 0.78 (≈ 2.01 µM) | >100 | 25 µg/mL (≈ 64.5 µM) |
| CCC(C)Nc1c(-c2cc(F)ccc2C(F)(F)F)c(Cl)nc2ncnn12 (stereo not drawn) [Compound I-5, [5-chloro-6-(5-fluoro-2-trifluoromethyl-phenyl)-[1,2,4]triazolo[1,5-α]pyrimidin-7-yl]-N-(1-methyl-propyl)-amine] | 12.5 (≈ 32.2 µM) | 7 | 0.78 (≈ 2.01 µM) | 6.25 (≈ 16.1 µM) | 12.5 µg/mL (≈ 32.2 µM) |
| Fc1ccc(C(F)(F)F)c(-c2c(Cl)nc3ncnn3c2NCC(F)(F)F)c1 [Compound I-6] |  | 7 |  |  |  |
| Nc1c(-c2cc(F)ccc2C(F)(F)F)c(Cl)nc2ncnn12 [Compound I-7] |  | 0 |  |  |  |
| CC1CCN(c2c(-c3cc(F)ccc3C(F)(F)F)c(Cl)nc3ncnn23)CC1 [Example 5, 5-Chloro-6-(5-fluoro-2-trifluorome-thylphenyl)-7-(4-methyl-piperidin-1-yl)-[1,2,4]triazolo[1,5-α]pyrimidine] | 0.78 (≈ 1.88 µM) | 7 | <0.05 | 0.2 (≈ 0.483 µM) | 0,78 μg/ml |
